Measured values from article PMC7985170, “Marine Peptide-N6NH2 and Its Derivative-GUON6NH2 Have Potent Antimicrobial Activity Against Intracellular Edwardsiella tarda in vitro and in vivo” (Frontiers in Microbiology, 2021).

Key:
E. tarda [1] = experiment: Mouse peritonitis model, bacterial counts in peritoneal fluid; assay type: in vivo; settings: 1 μmol/kg i.p.
Method: The mice were intraperitoneally infected with E. tarda (1 × 10^9 CFU/mL, 0.5 mL) and then injected with N6NH2 and GUON6NH2 (1 μmol/kg) or PBS (the blank control) in the same way at 1 h after infection. The mice were then killed at 24 h after treatment, and peritoneal fluids were obtained by washing with 5 mL of ice-cold PBS. The total number of E. tarda in the fluids was determined before any further procedures. For intracellular bacteria quantification, the other fraction was centrifuged for 5 min at 4°C (1,000 rpm). The cells were collected, treated with 1,000 μg/mL gentamicin for 30 min at 37°C to kill extracellular bacteria, and washed with ice-cold PBS twice to remove extracellular gentamicin. Subsequently, the cells were lysed and the bacteria were counted as described above for the in vitro experiment ([Kim et al., 2011]).

E. tarda [2] = experiment: Mouse peritonitis model, survival; assay type: in vivo; settings: 1 μmoL/kg i.p. at 1 h postinfection, ICR mice, 5 days
Method: To establish a peritonitis mouse model, six-week-old female ICR mice (five mice/group) were intraperitoneally injected with E. tarda (1 × 10^9 CFU/mL, 0.5 mL). The infected mice were followed by the intraperitoneal injection of N6NH2, GUON6NH2 or norfloxacin (1 μmol/kg of body weight, 0.2 mL) at 1 h postinfection, respectively. Mice injected with only bacteria or PBS were used as negative or blank controls. The survival of mice was recorded daily for 5 days.

E. tarda [3] = experiment: Post-antibiotic effect (PAE); assay type: cell-based, Edwardsiella tarda; settings: 2 h exposure, E. tarda, 28°C, n = 3
Method: E. tarda cells were incubated with peptides (1×, 2×, or 4× MIC) for 2 h, diluted, and cultured at 28°C and 200 rpm. An aliquot of samples (50 μL) were taken for CFU counts at different time intervals until bacterial cultures became turbid. Bacteria treated with the N6NH2, GUON6NH2 or vancomycin were used as the positive control; bacteria without treatment were used as the blank control. The PAE was calculated using the following formula: PAE = T–C, where T is the time for the CFU counts to increase by 10-fold above the count observed immediately after drug removal, and C is the corresponding time for the untreated control ([Oh et al., 2019]).

E. tarda [4] = experiment: Time-killing curve; assay type: cell-based, Edwardsiella tarda; settings: 2× MIC
Method: Time-killing curve of peptides was performed according to the previous method ([Flamm et al., 2019]). E. tarda was cultured to logarithmic phase, diluted in Mueller Hinton broth (MHB) (1 × 10^5 CFU/mL) containing 1×, 2×, or 4× MIC of peptides, and cultured at 28°C (200 rpm). PBS was added as a control. Bacterial samples (100 μL) were removed at different time intervals (0, 0.5, 1, 1.5, 2, 4, 6, 8, 10, 12, 22, and 24 h) and were counted on MH solid plates. The time-killing curves of peptides were plotted. Bacterial cells treated with 2× MIC norfloxacin and without treatment were used as the positive and blank controls, respectively.

E. tarda [5] = experiment: SEM and TEM morphology; assay type: cell-based, Edwardsiella tarda; settings: 4× MIC, 2 h
Method: To further characterize the bactericidal effects of the peptides, scanning electron microscopy (SEM) and transmission electron microscopy (TEM) were used to visualize morphological changes ([Yang et al., 2019]). E. tarda was cultured to logarithmic growth stage (10^8 CFU/mL) and diluted with 0.01 M PBS (pH 7.4) to OD600 nm = 1. E. tarda cells were treated with 4× MIC peptides at 37°C for 2 h and the untreated cells were used as the control. Briefly, after centrifugation, the bacterial cells were washed three times with 0.1 M PBS (pH 7.2) and fixed overnight at 4°C with 2.5% glutaraldehyde. After washing again, the cells were fixed with 1% osmium tetroxide (OsO4) for 2 h and dehydrated in a graded ethanol series (50%–70%–85%–95% × 2–100%, × 2) for 15 min, respectively. The samples were then dried by CO2, sputtered with gold-palladium, and observed on a QUANTA200 SEM (FEI, Philips, Netherlands).
E. tarda cells were treated peptides before fixation as described above. The bacteria were washed with 0.01 M PBS (pH 7.4) for five times, 7 min each time, and fixed with 1% osmium acid buffer (4°C) for 1 h. After dehydration with a graded acetone series (30%–50%–70%–85%–95%–100% × 3), the cells were immersed in mixtures of acetone and resin (3:1, 1:1 and 1:3, respectively) for 40 min and in a pure epoxy resin overnight. The samples were then embedded in embedding medium and polymerized at 45°C for 3 h and at 65°C for 24 h, respectively. The sections were prepared using an ultramicrotome, stained with 1% uranyl acetate, and visualized by a JEM1400 (JEDL, Tokyo, Japan).

LPS = LPS binding, BODIPY-TR-cadaverine (BC) probe displacement; settings: 0.5 μM LPS, 5 μM BC, Tris buffer pH 7.4; peptides 0.049 to 50 μM
Method: The BODIPY’-TR-cadaverine (BC) probe was used to determine the ability of peptides to bind to LPS ([Wang et al., 2020]). 0.5 μM LPS was incubated with 5 μM BC in […] Tris buffer (pH 7.4) for 4 h at 37°C. Subsequently, the peptides were added into the mixture and the final concentrations of peptides ranged from 0.049 to 50 μM. Ampicillin was used as the negative control. Changes in fluorescence were measured by a fluorescence spectrophotometry at room temperature (excitation/emission, 580/620 nm).

## CCn1cc(C(=O)O)c(=O)c2cc(F)c(N3CCNCC3)cc21 [norfloxacin, reference compound]
E. tarda [1]; peritoneal fluid 24 h after treatment
  decrease of total numbers of bacteria: 0.49 Log10 CFU
E. tarda [1]; peritoneal fluid cells 24 h after treatment
  reduction of intracellular bacteria: 0.35 Log10 CFU
E. tarda [2]
  survival rate of mice: 40%
E. tarda [3]; 1× MIC
  PAE: 2.65 h
E. tarda [3]; 2× MIC
  PAE: 3.48 h
E. tarda [3]; 4× MIC
  PAE: 3.12 h
E. tarda [4]
  time of bacterial re-growth: 12 h
E. tarda [5]
  morphological changes by SEM: no significant change in the bacterial cell structures
  ultrastructure changes by TEM: no significant change in bacterial cells
LPS
  ability to bind to LPS (BC probe displacement): did not replace BC probe to bind to LPS
